Assay results published in patent publication US20040053847A1, “Diastereomeric peptitdes and pharmaceutical compositions comprising them” (priority 2000, published 2004).
Converted amounts (≈) assume the structure as drawn. Values belong to the compound of their own block, whether it stands above or below them. Square brackets hold non-standard residues; d marks the D form. Peptide text beside a SMILES is read from it.

Columns and labels:
[1] = tested on: Candida albicans ATCC 10231; assay type: cell-based; conditions: ATCC 10231
Procedure: (§1) The antifungal activity of the diastereomers was examined in sterile 96-well plates (Nunc F96 microtiter plates) in a final volume of 200 μL as follows: 100 μl of a suspension containing fungi at concentration of 1×10^4 Colony-Forming Units (CFU)/ml in culture medium (RPMI 1640, 0.165 M MOPS pH 7.0, with L-glutamine, without NaHCO3) was added to 100 μl of water containing the peptide in serial 2-fold dilutions in water. The fungi were incubated in the presence of the diastereomeric peptides for 24-48 h at 35° C. in a Binder KB115 incubator under agitation. Growth inhibition was determined by measuring the absorbance at 620 nm with a Microplate autoreader E1309 (Bio-tek Instruments). Antifungal activity is expressed as the minimal inhibitory concentration (MIC), the concentration at which 100% inhibition of growth was observed after the incubation time mentioned above. The fungi used were: Aspergillus niger ATCC 9642, Candida albicans ATCC 10231 and Cryptococcus neoformans ATCC 66031.

[2] = tested on: Cryptococcus neoformans ATCC 66031; assay type: cell-based
Procedure: as §1

[3] = tested on: Aspergillus niger ATCC 9642; assay type: cell-based; conditions: ATCC 9642
Procedure: as §1

[4] = tested on: MCF-7 breast adenocarcinoma; assay type: cell-based, human; conditions: 24 h
Procedure: (§2) Aliquots of 100 μl of tumor cell suspension (about 2.5-5×10^3/well) were placed in 96-well microtiter plates in an atmosphere of 5% CO2 at 37° C. […] At the end of incubation, 20 μl of AlamarBlue 75% reagent was added to each well for another 6-hour incubation before detection of cell viability by fluorescence intensity. Fluorescence intensity was measured using a Spectraflour Plus plate reader with excitation at 530 nm and emission at 590 nm. The assays were used to detect changes in cell proliferation based on the ability of viable cells to cause AlamarBlue to change from its oxidized (non-fluorescent, blue) to a reduced (fluorescent, red) form. With the results obtained from the AlamarBlue reaction, cell proliferation can be quantified and metabolic activity of viable cells can be examined.

[5] = tested on: PC-3 prostate adenocarcinoma; assay type: cell-based, human; conditions: 24 h
Procedure: as §2

[6] = tested on: HT-29 colon adenocarcinoma; assay type: cell-based, human; conditions: 24 h
Procedure: as §2

[7] = tested on: SK-MEL- (ATCC HTB-70) malignant melanoma; assay type: cell-based, human; conditions: 24 h
Procedure: as §2

A549 lung carcinoma = assay type: cell-based, human; conditions: 24 h
Procedure: as §2

[8] = Cell selectivity, Trypan blue cell viability, LC50; assay type: cell-based, mouse; conditions: mouse, NIH-3T3 fibroblasts; 50% cell mortality after 24 h incubation, medium without serum; read-out: Lethal Concentration (LC50), NIH-3T3 fibroblasts
[9] = tested on: B16 F10 mouse melanoma cell line; test: In vitro anticancer activity, Trypan blue cell viability, LC50; conditions: 50% cell mortality after 24 h incubation, medium without serum
Procedure: The anticancer activity of the diastereomers 1, 2, 8, 9 and 10 was examined against B16 F10 mouse melanoma cell line. Melanoma cells were grown in RPMI-1640 medium supplemented with 10% fetal calf serum and antibiotics, at 37° C., in humidified atmosphere at 5% CO2 and 95% air. In addition, the cell-selectivity of the diastereomeric peptides was studied by examining their effect on NIH-3T3 normal fibroblasts cell line. NIH-3T3 mouse fibroblasts cells were grown in DMEM medium supplemented with 10% bovine calf serum and antibiotics under the same conditions as described above for B16 F10 mouse melanoma cells. Melanoma cells (2×10^5 cells ml^−1) or NIH-3T3 cells (2.5×10^5 cells ml^−1) were seeded in tissue culture plates (3.5 cm). After 48 h, cells were washed thrice with the corresponding medium. Then the cells were incubated at 37° C. in medium (without serum and antibiotics) in the presence of the tested diastereomeric peptides dissolved in PBS, at different concentrations. […] Following 24 h of incubation, the cells were harvested with trypsin (0.25%)-EDTA (0.05%) and centrifuiged for 10 min at 270×g. The precipitated cells were suspended in the corresponding medium and counted in a hemocytometer (Neubauer). Cell viability was determined by Trypan blue dye exclusion.

human breast MCF-7 cells = test: Xenograft model of human breast MCF-7 cells in SCID mice; assay type: in vivo
Procedure: The in-vivo anticancer assay was conducted on SCID (Severe Combined Immune Deficiency) mice using the xenograft model of human breast MCF-7 cells. Groups of 6 SCID female mice weighing 18-20 g (6-week old), bred in an animal isolator (IVC racks under specific pathogen-free (SPF) conditions at 24±1° C., were used. Viable human breast carcinoma MCF-7 cells (ATCC HTB-22−1×10^7 cells in 0.2 ml of PBS) were injected subcutaneously (s.c.) into the dorsal side of SCID mice. 50 μg/mouse of estradiol benzoate was injected s.c. weekly as a supplement for 4 weeks. […] Mitomycin at a dose of 2 mg/kg was administered intraperitoneally (IP) twice a week for 5 doses. The tumor size, body weight and the signs of overt animal toxicity after each treatment were recorded and observed. At the end of the experiment, hematological analysis was carried out.

[10] = Hematology analysis on Day 25, MEAN ± SEM
[11] = hematological analysis at the end of the assay
[12] = peptide 9 3 mg/kg IV, mitomycin 2 mg/kg IP

SMILES: CC(C)C[C@H](NC(=O)[C@H](CC(C)C)NC(=O)[C@@H](CCCCN)NC(=O)[C@@H](CCCCN)NC(=O)[C@H](CC(C)C)NC(=O)[C@@H](CC(C)C)NC(=O)[C@H](CCCCN)NC(=O)[C@H](CC(C)C)NC(=O)[C@@H](CC(C)C)NC(=O)[C@H](CC(C)C)NC(=O)[C@@H](N)CCCCN)C(=O)N[C@@H](CCCCN)C(=O)N[C@H](CC(C)C)C(=O)N[C@@H](CC(C)C)C(=O)N[C@@H](CCCCN)C(N)=O [Peptide 10, [D]-L^3,6,13,K^8,9,13-K6L9] (H-KL[dL]LK[dL]L[dK][dK]LLK[dL]LK-NH2; N-terminus assumed)
IC50 [4]: 3.6 µM
IC50 [5]: 8.9 µM
IC50 [6]: 15 µM
IC50 [7]: 2.6 µM
IC50 (A549 lung carcinoma): 2.4 µM
CC50 at 24 h [8]: 140 µg/mL (≈ 77.6 µM)

SMILES: CC(C)C[C@H](NC(=O)CN)C(=O)N[C@H](CC(C)C)C(=O)N[C@@H](CC(C)C)C(=O)N[C@@H](CCCNC(=N)N)C(=O)N[C@H](CC(C)C)C(=O)N[C@@H](CC(C)C)C(=O)N[C@H](CCCCN)C(=O)N[C@H](CCCCN)C(=O)N[C@@H](CC(C)C)C(=O)N[C@@H](CC(C)C)C(=O)N[C@@H](CCCNC(=N)N)C(=O)N[C@H](CC(C)C)C(=O)N[C@@H](CC(C)C)C(=O)N[C@@H](CCCCN)C(=O)N[C@@H](CCCCN)C(N)=O [Peptide 5, [D]-L^3,6,13,K^8,9-GK4R2L9] (H-GL[dL]LR[dL]L[dK][dK]LLR[dL]LKK-NH2; N-terminus assumed)
MIC, C. albicans ATCC 10231 [1]: 50 µg/mL (≈ 26.1 µM)
MIC, C. neoformans ATCC 66031 [2]: 3 µg/mL (≈ 1.56 µM)
MIC, A. niger ATCC 9642 [3]: 50 µg/mL (≈ 26.1 µM)

SMILES: CC(C)C[C@H](NC(=O)CN)C(=O)N[C@H](CC(C)C)C(=O)N[C@@H](CCCCN)C(=O)N[C@@H](CC(C)C)C(=O)N[C@@H](CC(C)C)C(=O)N[C@H](CCCCN)C(=O)N[C@H](CCCCN)C(=O)N[C@@H](CC(C)C)C(=O)N[C@H](CC(C)C)C(=O)N[C@@H](CCCCN)C(=O)N[C@@H](CC(C)C)C(=O)N[C@H](CC(C)C)C(=O)N[C@@H](CC(C)C)C(=O)N[C@@H](CCCCN)C(=O)N[C@@H](CCCCN)C(N)=O [Peptide 8, [D]-L^3,10,13,K^7,8-GK6L9] (H-GL[dL]KLL[dK][dK]L[dL]KL[dL]LKK-NH2; N-terminus assumed)
Lethal Concentration (LC50), B16-F10 melanoma [9]: 9 µg/mL
MIC, C. albicans ATCC 10231 [1]: 30 µg/mL (≈ 16.1 µM)
MIC, C. neoformans ATCC 66031 [2]: 1.5 µg/mL (≈ 0.806 µM)
MIC, A. niger ATCC 9642 [3]: 30 µg/mL (≈ 16.1 µM)
CC50 at 24 h [8]: 30 µg/mL (≈ 16.1 µM)

SMILES: CO[C@@]12[C@H](COC(N)=O)C3=C(C(=O)C(C)=C(N)C3=O)N1C[C@@H]1N[C@@H]12 [Mitomycin C, mitomycin C]
PLT (human breast MCF-7 cells; [10]): 396000 µL⁻¹
RBC (human breast MCF-7 cells; [10]): 10.55 ± 0.37 × 10^6/μl
WBC (human breast MCF-7 cells; [10]): 670 µL⁻¹
Reduction of RBC (human breast MCF-7 cells; [11]): significant reduction
Reduction of WBC and platelets (human breast MCF-7 cells; [11]): significant reduction
Effect on tumor growth (FIG. 1) (human breast MCF-7 cells; peptide 9 3 mg/kg IV twice a week, 6 doses, mitomycin 2 mg/kg IP twice a week, 5 doses): more potent than peptide 9
Body weight and condition of animals (FIG. 2) (human breast MCF-7 cells; [12]): signs of weakness and loss of weight
Side effects in treated animals (human breast MCF-7 cells; [12]): severe side effects throughout the assay period

Results, then the compound that gave them:

MIC, C. albicans ATCC 10231 [1]: 50 µg/mL (≈ 27.7 µM)
MIC, C. neoformans ATCC 66031 [2]: 5.6 µg/mL (≈ 3.1 µM)
MIC, A. niger ATCC 9642 [3]: 180 µg/mL (≈ 99.7 µM)
SMILES: CC(C)C[C@H](NC(=O)[C@H](CC(C)C)NC(=O)[C@@H](CCCCN)NC(=O)[C@H](CC(C)C)NC(=O)[C@H](CC(C)C)NC(=O)[C@H](CCCCN)NC(=O)[C@@H](CCCCN)NC(=O)[C@@H](CC(C)C)NC(=O)[C@H](CC(C)C)NC(=O)[C@@H](CCCCN)NC(=O)[C@H](CCCCN)NC(=O)[C@H](CC(C)C)NC(=O)[C@@H](CC(C)C)NC(=O)[C@H](CCCCN)NC(=O)[C@@H](N)CC(C)C)C(N)=O [Peptide 4, [D]-L^3,8,K^6,9,13-K6L9] (H-LK[dL]LK[dK]L[dL][dK]KLL[dK]LL-NH2; N-terminus assumed)

MIC, C. albicans ATCC 10231 [1]: 40 µg/mL (≈ 22.2 µM)
MIC, C. neoformans ATCC 66031 [2]: 2.8 µg/mL (≈ 1.55 µM)
MIC, A. niger ATCC 9642 [3]: 90 µg/mL (≈ 49.9 µM)
SMILES: CC(C)C[C@H](NC(=O)[C@H](CC(C)C)NC(=O)[C@@H](CCCCN)NC(=O)[C@H](CC(C)C)NC(=O)[C@H](CC(C)C)NC(=O)[C@H](CCCCN)NC(=O)[C@@H](CCCCN)NC(=O)[C@@H](CC(C)C)NC(=O)[C@H](CC(C)C)NC(=O)[C@H](CCCCN)NC(=O)[C@H](CCCCN)NC(=O)[C@H](CC(C)C)NC(=O)[C@@H](CC(C)C)NC(=O)[C@H](CCCCN)NC(=O)[C@@H](N)CC(C)C)C(N)=O [Peptide 3, [D]-L^3,8,K^9,13-K6L9] (H-LK[dL]LKKL[dL][dK]KLL[dK]LL-NH2; N-terminus assumed)

MIC, C. albicans ATCC 10231 [1]: 50 µg/mL (≈ 27.7 µM)
MIC, C. neoformans ATCC 66031 [2]: 2.9 µg/mL (≈ 1.61 µM)
MIC, A. niger ATCC 9642 [3]: 50 µg/mL (≈ 27.7 µM)
SMILES: CC(C)C[C@H](NC(=O)[C@H](CCCCN)NC(=O)[C@@H](CC(C)C)NC(=O)[C@H](CC(C)C)NC(=O)[C@@H](N)CCCCN)C(=O)N[C@@H](CC(C)C)C(=O)N[C@H](CCCCN)C(=O)N[C@H](CCCCN)C(=O)N[C@@H](CC(C)C)C(=O)N[C@H](CC(C)C)C(=O)N[C@@H](CCCCN)C(=O)N[C@@H](CC(C)C)C(=O)N[C@H](CC(C)C)C(=O)N[C@@H](CC(C)C)C(=O)N[C@@H](CCCCN)C(N)=O [Peptide 7, [D]-L^3,10,13,K^7,8-K6L9] (H-KL[dL]KLL[dK][dK]L[dL]KL[dL]LK-NH2; N-terminus assumed)
